# Legend:
# [1] = tested on: T1, BrGH3A; test: glucose release, glucose oxidase/ABTS; format: biochemical, metagenome: bovine ruminal fluid; conditions: 0.1 M sodium citrate, pH 5.0, 40°C, 5 min
# T1 construct: C-FnIII-N domain order is natural
# Text: glucose release, glucose oxidase/ABTS on BrGH3A
# [2] = tested on: T1, BrGH3A; test: p-nitrophenol release, absorbance […] nm; format: biochemical, metagenome: bovine ruminal fluid; conditions: 0.1 M sodium citrate, pH 5.0, 40°C, 5 min
# [3] = released glucose divided by two
Structure (SMILES),Km [2] [mM],other results
OC[C@H]1O[C@@H](O[C@H]2[C@H](O)[C@@H](O)C(O)O[C@@H]2CO)[C@H](O)[C@@H](O)[C@@H]1O (some centres unmarked) [Cellobiose],–,"Km [1, 3]: 30 ± 3.9 mM"
OC[C@H]1O[C@@H](O[C@H]2[C@H](O)[C@@H](CO)OC(O)[C@@H]2O)[C@H](O)[C@@H](O)[C@@H]1O (some centres unmarked) [Laminaribiose],–,"Km [1, 3]: 14.3 ± 1.3 mM"
OC[C@H]1O[C@@H](O[C@@H]2[C@@H](O)[C@H](O[C@H]3[C@H](O)[C@@H](CO)OC(O)[C@@H]3O)O[C@H](CO)[C@H]2O)[C@H](O)[C@@H](O)[C@@H]1O (some centres unmarked) [Laminaritriose],–,Km ([1]; calculated as total released glucose): 5.4 ± 0.42 mM
"O=[N+]([O-])c1ccc(O[C@@H]2OC[C@@H](O)[C@H](O)[C@H]2O)cc1 [pNP-Xyl, p-nitrophenyl-β-D-xylopyranoside]",2.12 ± 0.1,–

# Further lines, with some results ahead:
Km [2] [mM],Structure (SMILES),other results
9.95 ± 1.16,"O=[N+]([O-])c1ccc(O[C@@H]2OC[C@H](O)[C@H](O)[C@H]2O)cc1 [pNP-Ara, p-nitrophenyl-α-L-arabinopyranoside]",–
7.96 ± 0.64,"C[C@H]1O[C@@H](Oc2ccc([N+](=O)[O-])cc2)[C@H](O)[C@@H](O)[C@H]1O [pNP-Fuc, p-nitrophenyl-β-D-fucopyranoside]",–
7.55 ± 0.9,"O=[N+]([O-])c1ccc(O[C@@H]2O[C@H](CO)[C@H](O)[C@H](O)[C@H]2O)cc1 [pNP-Gal, p-nitrophenyl-β-D-galactopyranoside]",–
0.6 ± 0.04,"O=[N+]([O-])c1ccc(O[C@@H]2O[C@H](CO)[C@@H](O)[C@H](O)[C@H]2O)cc1 [pNP-Glc, p-nitrophenyl-β-D-glucopyranoside]",–
